Reference: ChEMBL document CHEMBL5096145, “Evaluation of imidazo[2,1-b]thiazole-based anticancer agents in one decade (2011-2020): Current status and future prospects” (Bioorg Med Chem, 2021)

How the values were obtained:
MDA-MB-231 [1] = experiment: Induction of cell cycle arrest in human MDA-MB-231 cells assessed as accumulation of cells at G0/G1 phase measured at 1 uM incubated for 24 hrs by flow cytometric analysis relative to control; assay type: functional
[2] = biological target: Serine/threonine-protein kinase B-raf (Homo sapiens, UniProt P15056, V600E); experiment: Inhibition of human BRAF V600E mutant using MEK1 as substrate in presence of ATP
[3] = biological target: Serine/threonine-protein kinase B-raf (Homo sapiens) (UniProt P15056); experiment: Inhibition of wildtype BRAF (unknown origin) using MEK1 as substrate in presence of ATP relative to control; conditions: concentration not given here
[4] = test system: Serine/threonine-protein kinase B-raf (Homo sapiens), P15056 [V600E]; experiment: Inhibition of human BRAF V600E mutant using MEK1 as substrate in presence of ATP relative to control; conditions: concentration not given here
Breast carcinoma cell = experiment: Cytotoxicity against human breast cancer cell line assessed as reduction in cell viability by MTT assay relative to control; assay type: functional
CNS carcinoma cell = experiment: Cytotoxicity against human CNS carcinoma cells assessed as reduction in cell viability by MTT assay relative to control; assay type: functional
[5] = Cytotoxicity against human Colon carcinoma cells assessed as reduction in cell viability by MTT assay relative to control; assay type: functional
Leukemic tumor cell line = experiment: Cytotoxicity against human leukemic tumor cell line assessed as reduction in cell viability by MTT assay relative to control; assay type: functional
Melanoma tumor cell line = experiment: Cytotoxicity against human melanoma tumor cell line assessed as reduction in cell viability by MTT assay relative to control; assay type: functional
[6] = test system: Non-small cell lung cancer cell line; experiment: Cytotoxicity against human non-small cell lung cancer cell line assessed as reduction in cell viability by MTT assay relative to control; assay type: functional
Ovarian cancer cell line = experiment: Cytotoxicity against human ovarian cancer cell line assessed as reduction in cell viability by MTT assay relative to control; assay type: functional
Prostatic carcinoma cell = experiment: Cytotoxicity against human prostatic carcinoma cell assessed as reduction in cell viability by MTT assay relative to control; assay type: functional
Renal cancer cell line = experiment: Cytotoxicity against human renal cancer cell line assessed as reduction in cell viability by MTT assay relative to control; assay type: functional
A-375 [7] = experiment: Cytotoxicity against human A-375 cells by MTT assay; assay type: functional, cell-based
[8] = Cytotoxicity against human L132 cells by MTT assay; assay type: toxicity, cell-based
MCF7 [9] = experiment: Antiproliferative activity against human MCF7 cells measured after 48 hrs by MTT assay; assay type: functional, cell-based; conditions: MCF7, 48 h
HeLa [10] = experiment: Antiproliferative activity against human HeLa cells measured after 48 hrs by MTT assay; assay type: functional, cell-based
MDA-MB-231 [11] = experiment: Antiproliferative activity against human MDA-MB-231 cells measured after 48 hrs by MTT assay; assay type: functional, cell-based; conditions: MDA-MB-231, 48 h
HeLa [12] = experiment: Cytotoxicity against human HeLa cells expressing EGFR assessed as reduction in cell viability incubated for 24 hrs by MTT assay; assay type: functional, cell-based
HepG2 [13] = experiment: Cytotoxicity against human HepG2 cells expressing EGFR assessed as reduction in cell viability incubated for 24 hrs by MTT assay; assay type: functional, cell-based; conditions: HepG2, 24 h
L02 = experiment: Cytotoxicity against human HL7702 cells expressing EGFR assessed as reduction in cell viability incubated for 24 hrs by MTT assay; assay type: functional, cell-based; conditions: L02, 24 h
HUVEC = experiment: Cytotoxicity against HUVEC expressing EGFR assessed as reduction in cell viability incubated for 24 hrs by MTT assay; assay type: functional, cell-based; conditions: Homo sapiens
A-375 [14] = experiment: Antiproliferative activity against human A375 cells measured after 48 hrs by MTT assay; assay type: functional, cell-based; conditions: A-375, 48 h
MDA-MB-435 = experiment: Antiproliferative activity against human MDA-MB-435 cells measured after 48 hrs by MTT assay; assay type: functional, cell-based; conditions: MDA-MB-435, 48 h
SK-MEL-28 = experiment: Antiproliferative activity against human SK-MEL-28 cells measured after 48 hrs by MTT assay; assay type: functional, cell-based; conditions: SK-MEL-28, 48 h
UACC-62 [15] = experiment: Antiproliferative activity against human UACC-62 cells measured after 48 hrs by MTT assay; assay type: functional, cell-based; conditions: UACC-62, 48 h
OVCAR-3 = experiment: Anticancer activity against human OVCAR-3 cells incubated for 48 hrs by SRB staining assay; assay type: functional
HCT-116 = experiment: Anticancer activity against human HCT-116 cells measured after 48 hrs by MTT assay; assay type: functional, cell-based; conditions: HCT-116, 48 h
A549 [16] = experiment: Anticancer activity against human A549 cells incubated for 24 hrs by MTT assay; assay type: functional, cell-based; conditions: A549, 24 h
Tubulin = experiment: Inhibition of tubulin polymerization (unknown origin) by fluorescence based assay; assay type: protein-complex assay, Homo sapiens
A549 [17] = experiment: Induction of apoptosis in human A549 cells assessed as increase in caspase-3 level at 0.5 uM measured after 48 hrs by ELISA method relative to control; assay type: functional
A549 [18] = experiment: Induction of apoptosis in human A549 cells assessed as increase in caspase-3 level at 1 uM measured after 48 hrs by ELISA method relative to control (RVB = 9.1 %); assay type: functional
MDA-MB-231 [19] = experiment: Antiproliferative activity human MDA-MB-231 cells; assay type: functional, cell-based
MCF7 [20] = experiment: Antiproliferative activity human MCF7 cells; assay type: functional, cell-based
A549 [21] = experiment: Antiproliferative activity human A549 cells; assay type: functional, cell-based
A549 [22] = experiment: Antiproliferative activity against human A549 cells incubated for 48 hrs by MTT assay; assay type: functional, cell-based; conditions: A549, 48 h
A549 [23] = experiment: Inhibition of tubulin polymerisation in human A549 cells relative to control; assay type: cell-based; conditions: dose or concentration not given here
[24] = Inhibition of tubulin polymerisation in human A549; assay type: cell-based
A549 [25] = experiment: Induction of cell cycle arrest in human A549 cells assessed as accumulation of cells at G2/M phase at 1 uM by flow cytometric analysis relative to control; assay type: functional
A549 [26] = experiment: Induction of cell cycle arrest in human A549 cells assessed as accumulation of cells at G2/M phase at 2 uM by flow cytometric analysis relative to control; assay type: functional
A549 [27] = experiment: Induction of apoptosis in human A549 cells at 1 uM measured after 48 hrs by Annexin V-FITC analysis; assay type: functional
A549 [28] = experiment: Induction of apoptosis in human A549 cells at 2 uM measured after 48 hrs by Annexin V-FITC analysis; assay type: functional
[29] = Inhibition of BRAF V600E mutant in MEF cells incubated for 90 mins; assay type: cell-based, Mus musculus
UACC-62 [30] = experiment: Induction of apoptosis in human UACC-62 cells assessed as increase in caspase-3/7 release at 0.18 uM relative to control; assay type: functional
MIA PaCa-2 = experiment: Antiproliferative activity against human MIAPaCa-2 cells measured after 24 to 48 hrs by SRB staining based assay; assay type: functional, cell-based
HepG2 [31] = experiment: Antiproliferative activity against human HepG2 cells measured after 48 hrs by MTT assay; assay type: functional, cell-based; conditions: HepG2, 48 h
OVCAR-5 = experiment: Cytotoxicity against human OVCAR-5 cells assessed as inhibition of cell growth; assay type: functional, cell-based
DU-145 [32] = experiment: Cytotoxicity against human DU-145 cells assessed as reduction in cell viability; assay type: functional, cell-based
DU-145 [33] = experiment: Potency index, ratio of sorafenib IC50 to test compound IC50 for cytotoxicity against human DU-145 cells; assay type: functional
HT-29 = experiment: Cytotoxicity against human HT-29 cells assessed as reduction in cell viability relative to control; assay type: functional

Chain of Serine/threonine-protein kinase B-raf (P15056 2-766 V600E limits assumed): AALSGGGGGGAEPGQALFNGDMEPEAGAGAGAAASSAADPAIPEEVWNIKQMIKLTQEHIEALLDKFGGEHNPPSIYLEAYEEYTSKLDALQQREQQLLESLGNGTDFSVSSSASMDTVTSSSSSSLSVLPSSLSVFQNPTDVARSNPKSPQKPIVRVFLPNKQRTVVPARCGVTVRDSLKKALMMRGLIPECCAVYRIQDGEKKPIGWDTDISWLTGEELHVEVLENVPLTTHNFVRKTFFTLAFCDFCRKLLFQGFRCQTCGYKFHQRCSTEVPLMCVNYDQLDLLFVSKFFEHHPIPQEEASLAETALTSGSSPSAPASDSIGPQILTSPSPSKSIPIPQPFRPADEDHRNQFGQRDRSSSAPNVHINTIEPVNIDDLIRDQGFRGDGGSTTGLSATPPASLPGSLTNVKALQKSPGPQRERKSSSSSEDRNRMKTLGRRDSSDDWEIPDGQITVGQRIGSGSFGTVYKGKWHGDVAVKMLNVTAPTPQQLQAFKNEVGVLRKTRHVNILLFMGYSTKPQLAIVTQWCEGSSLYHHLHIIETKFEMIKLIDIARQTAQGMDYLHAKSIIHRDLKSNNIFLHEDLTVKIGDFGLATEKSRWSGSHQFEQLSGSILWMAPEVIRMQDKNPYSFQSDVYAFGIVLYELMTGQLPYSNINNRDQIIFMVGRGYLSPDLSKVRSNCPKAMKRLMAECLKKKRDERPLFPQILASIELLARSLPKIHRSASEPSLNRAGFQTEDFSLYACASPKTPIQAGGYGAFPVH
Chain of Serine/threonine-protein kinase B-raf (Homo sapiens) (P15056 whole entry): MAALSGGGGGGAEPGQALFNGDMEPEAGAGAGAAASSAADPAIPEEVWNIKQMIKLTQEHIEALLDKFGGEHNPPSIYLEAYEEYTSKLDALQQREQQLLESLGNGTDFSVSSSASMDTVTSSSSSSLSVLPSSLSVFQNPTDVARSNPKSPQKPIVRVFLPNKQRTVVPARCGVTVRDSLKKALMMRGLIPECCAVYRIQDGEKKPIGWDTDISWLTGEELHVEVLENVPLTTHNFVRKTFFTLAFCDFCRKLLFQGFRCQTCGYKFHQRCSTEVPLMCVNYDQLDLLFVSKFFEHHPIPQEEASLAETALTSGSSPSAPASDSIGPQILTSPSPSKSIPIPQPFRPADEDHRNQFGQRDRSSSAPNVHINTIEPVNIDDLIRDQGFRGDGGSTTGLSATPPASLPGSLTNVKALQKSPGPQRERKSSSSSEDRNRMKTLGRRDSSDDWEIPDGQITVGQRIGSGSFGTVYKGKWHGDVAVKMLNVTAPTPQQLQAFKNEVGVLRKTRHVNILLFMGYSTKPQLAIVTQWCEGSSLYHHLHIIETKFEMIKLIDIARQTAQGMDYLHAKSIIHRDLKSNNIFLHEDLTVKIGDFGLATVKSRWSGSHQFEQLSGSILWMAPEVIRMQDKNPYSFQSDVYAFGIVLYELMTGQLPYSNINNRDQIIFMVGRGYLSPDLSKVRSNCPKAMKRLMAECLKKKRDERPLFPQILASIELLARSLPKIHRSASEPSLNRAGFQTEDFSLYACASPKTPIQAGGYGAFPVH
Chain of Serine/threonine-protein kinase B-raf (Homo sapiens), P15056 [V600E] (P15056 whole entry V600E): as the sequence (P15056 whole entry) above, with V600E counted along it

COc1ccc(-c2nc3sccn3c2/C=N/NC(=O)c2cccc(O)c2)cc1
Activity (MDA-MB-231 [1]): 72.4%

O=[N+]([O-])c1cccc(-c2nc3sccn3c2-c2ccnc(NCCCNS(=O)(=O)c3cccc(F)c3)n2)c1
IC50 [2]: 21 nM
inhibition [3]: 66.3%
inhibition [4]: 99.6%
inhibition (INH) (Breast carcinoma cell): >80%
inhibition (INH) (CNS carcinoma cell): 70%
inhibition (INH) [5]: >80%
inhibition (INH) (Leukemic tumor cell line): >90%
inhibition (INH) (Melanoma tumor cell line): 100%
inhibition (INH) [6]: >80%
inhibition (INH) (Ovarian cancer cell line): >80%
inhibition (INH) (Prostatic carcinoma cell): >90%
inhibition (INH) (Renal cancer cell line): >70%
IC50 (A-375 [7]): 2990 nM
IC50 [8]: 80000 nM

COc1cc(C(=O)N/N=C/c2c(-c3ccc(F)cc3)nc3sccn23)cc(OC)c1OC
Activity (MDA-MB-231 [1]): 75.8%

O=C1Nc2ccccc2/C1=C\c1c(-c2ccc(Br)cc2)nc2scc(-c3cc4ccccc4oc3=O)n12
IC50 (MCF7 [9]): 10800 nM
IC50 (HeLa [10]): 6770 nM

COc1ccc(C(=O)/C=C/c2cn3c(n2)sc2ccccc23)cc1
IC50 (MDA-MB-231 [11]): 1200 nM

O=[N+]([O-])c1cccc(-c2nc3sccn3c2-c2ccnc(NCCCNS(=O)(=O)c3ccc(F)cc3)n2)c1
IC50 [2]: 35 nM
inhibition (INH) (Breast carcinoma cell): >80%
inhibition (INH) (CNS carcinoma cell): 70%
inhibition (INH) [5]: >80%
inhibition (INH) (Leukemic tumor cell line): >90%
inhibition (INH) (Melanoma tumor cell line): 100%
inhibition (INH) [6]: >80%
inhibition (INH) (Ovarian cancer cell line): >80%
inhibition (INH) (Prostatic carcinoma cell): >90%
inhibition (INH) (Renal cancer cell line): >70%
IC50 (A-375 [7]): 7960 nM
IC50 [8]: 76000 nM

O=C(Cc1csc2nc3ccccc3n12)Nc1ccccc1O
IC50 (HeLa [12]): 420 nM
IC50 (HepG2 [13]): > 100000 nM
IC50 (L02): > 100000 nM
IC50 (HUVEC): > 100000 nM

COc1cccc2c1C(=O)c1c(O)c3c(c(O)c1C2=O)C[C@@](O)(C(=O)CO)C[C@@H]3O[C@H]1C[C@H](N)[C@H](O)[C@H](C)O1 [DOXORUBICIN]
IC50 (MDA-MB-231 [11]): 1800 nM

CNC(=O)c1cc(Oc2ccc(NC(=O)Nc3ccc(Cl)c(C(F)(F)F)c3)cc2)ccn1 [SORAFENIB]
IC50 (A-375 [14]): 1950 nM
IC50 (MDA-MB-435): 1950 nM
IC50 (SK-MEL-28): 1950 nM
IC50 (UACC-62 [15]): 1950 nM
IC50 (A-375 [7]): 10300 nM
GI50 (OVCAR-3): 2950 nM

C/C(=N\N=C1\S/C(=N\Nc2ccc(Br)cc2)C(=O)N1N)c1sc2nc(-c3ccc(C)cc3)cn2c1C
IC50 (HCT-116): 1100 nM

COc1ccc(-c2sc3nc(-c4ccc(F)cc4)c(/C=C/C(=O)c4ccccn4)n3c2-c2ccc(OC)cc2)cc1
IC50 (A549 [16]): 640 nM
IC50 (Tubulin): 2350 nM
Activity (A549 [17]): 64.14%
Activity (A549 [18]): 69.07%

CCCS(=O)(=O)Nc1ccc(F)c(C(=O)c2c[nH]c3ncc(-c4ccc(Cl)cc4)cc23)c1F [VEMURAFENIB]
IC50 (A-375 [7]): 5900 nM

COc1ccc2c(c1)sc1nc(/C=C/C(=O)c3ccc(OC)c(O)c3)cn12
IC50 (MDA-MB-231 [11]): 1300 nM

COC(=O)Nc1nc2cc(C(=O)c3cccs3)ccc2[nH]1 [NOCODAZOLE]
Activity (A549 [18]): 62.9%
IC50 (MDA-MB-231 [19]): 2370 nM
IC50 (MCF7 [20]): 2370 nM
IC50 (A549 [21]): 1140 nM
IC50 (MDA-MB-231 [11]): 1900 nM
IC50 (A549 [22]): 1810 nM
inhibition (A549 [23]): 64.7%
IC50 [24]: 1990 nM

COc1ccc(-c2nc3sccn3c2-c2nc3ccc(C(F)(F)F)cc3[nH]2)cc1
IC50 (A549 [22]): 1080 nM
Activity (A549 [25]): 15.1%
Activity (A549 [26]): 56.3%
inhibition (A549 [23]): 68.1%
IC50 [24]: 1680 nM
Activity (A549 [27]): 14.94%
Activity (A549 [28]): 43.62%

O=C(NCCNc1nccc(-c2c(-c3cccc(O)c3)nc3sccn23)n1)c1ccccc1
IC50 (A-375 [14]): 180 nM
IC50 (MDA-MB-435): 180 nM
IC50 (SK-MEL-28): 180 nM
IC50 (UACC-62 [15]): 180 nM
IC50 [29]: 190 nM
Activity (UACC-62 [30]): 53.33%

COc1ccc2c(c1OCc1csc3nc(-c4cc(C)c(Br)s4)cn13)C(=O)OC2C1c2c(cc3c(c2OC)OCO3)CCN1C (stereo unspecified)
IC50 (MIA PaCa-2): 3600 nM

O=C1NC(=S)NC(=O)C1=Cc1c(-c2ccc(Cl)cc2)nc2scc(-c3cc4ccccc4oc3=O)n12
IC50 (MCF7 [9]): 17000 nM
IC50 (HepG2 [31]): 13900 nM
IC50 (HeLa [10]): 5180 nM

COc1ccc(-c2nc3sccn3c2/C=C/C(=O)c2cc(OC)c(OC)c(OC)c2)cc1
IC50 (OVCAR-5): 1990 nM

O=C(Cc1csc2nc3ccccc3n12)Nc1cccc2ccccc12
IC50 (HeLa [12]): 2490 nM
IC50 (HepG2 [13]): > 100000 nM
IC50 (L02): > 100000 nM
IC50 (HUVEC): > 100000 nM

O=C(/C=C\Nc1cnc2ccccc2c1)c1c(-c2ccccc2)nc2sccn12
IC50 (MDA-MB-231 [19]): 4600 nM
IC50 (MCF7 [20]): 4600 nM
IC50 (A549 [21]): 400 nM

COc1ccc(C(=O)NCCNc2nccc(-c3c(-c4ccc(F)cc4)nc4sccn34)n2)cc1
IC50 (DU-145 [32]): 1040 nM
Ratio IC50 (DU-145 [33]): 3
inhibition (INH) (HT-29): 85.38%

C/C(=N\N=C1\S/C(=N\Nc2ccccc2)C(=O)N1N)c1sc2nc(-c3ccc(C)cc3)cn2c1C
IC50 (HCT-116): 1100 nM
